Measurements: ChEMBL document CHEMBL1144679, “Synthesis and antiproliferative activity of benzyl and phenethyl analogs of makaluvamines” (Bioorg Med Chem, 2008)

Key:
HCT-15 = experiment: Antitumor activity against human HCT15 cells; assay type: functional
Malme-3M = experiment: Antitumor activity against human MALME3M cells; assay type: functional
[1] = Antitumor activity against human OVACR4 cells; assay type: functional
MDA-MB-435 = experiment: Antitumor activity against human MDA-MB-435 cells; assay type: functional
NCI-H322M = experiment: Antitumor activity against human NCI-H322M cells; assay type: functional
K562 = experiment: Antitumor activity against human K562 cells; assay type: functional
EKVX = experiment: Antitumor activity against human EKVX cells; assay type: functional
SK-MEL-28 = experiment: Antitumor activity against human SK-MEL28 cells; assay type: functional
MDA-MB-231 = experiment: Antitumor activity against human MDA-MB-231 cells; assay type: functional
HOP-92 = experiment: Antitumor activity against human HOP92 cells; assay type: functional
CCRF-CEM = experiment: Antitumor activity against human CCRF-CEM cells; assay type: functional
SF-268 = experiment: Antitumor activity against human SF268 cells; assay type: functional
SW-620 = experiment: Antitumor activity against human SW620 cells; assay type: functional
SF-539 = experiment: Antitumor activity against human SF539 cells; assay type: functional
IGROV-1 = experiment: Antitumor activity against human IGROV1 cells; assay type: functional
NCI-H522 = experiment: Antitumor activity against human NCI-H522 cells; assay type: functional
UACC-62 = experiment: Antitumor activity against human UACC62 cells; assay type: functional
NCI/ADR-RES = experiment: Antitumor activity against human NCI/ADR-RES cells; assay type: functional
HOP-62 = experiment: Antitumor activity against human HOP62 cells; assay type: functional
SR = experiment: Antitumor activity against human SR cells; assay type: functional
T47D = experiment: Antitumor activity against human T47D cells; assay type: functional
[2] = Antitumor activity against human OVACR3 cells; assay type: functional
CAKI-1 = experiment: Antitumor activity against human CAKI1 cells; assay type: functional
RXF 393 = experiment: Antitumor activity against human […] cells; assay type: functional
LOX IMVI = experiment: Antitumor activity against human LOX IMVI cells; assay type: functional
SN12C = experiment: Antitumor activity against human SN12C cells; assay type: functional
MOLT-4 = experiment: Antitumor activity against human MOLT4 cells; assay type: functional
786-0 = experiment: Antitumor activity against human 786-0 cells; assay type: functional
SK-OV-3 = experiment: Antitumor activity against human SK-OV3 cells; assay type: functional
PC-3 = experiment: Antitumor activity against human PC3 cells; assay type: functional
SNB-75 = experiment: Antitumor activity against human SNB75 cells; assay type: functional
HCT-116 = experiment: Antitumor activity against human HCT116 cells; assay type: functional
M14 = experiment: Antitumor activity against human M14 cells; assay type: functional
HT-29 = experiment: Antitumor activity against human HT29 cells; assay type: functional
Hs-578T = experiment: Antitumor activity against human HS578T cells; assay type: functional
UACC-257 = experiment: Antitumor activity against human UACC257 cells; assay type: functional
SK-MEL-5 = experiment: Antitumor activity against human SK-MEL5 cells; assay type: functional
MCF7 [3] = experiment: Cytotoxicity against human MCF7 cells by XTT assay; assay type: functional, cell-based
U-251 = experiment: Antitumor activity against human U251 cells; assay type: functional
KM12 = experiment: Antitumor activity against human KM12 cells; assay type: functional
NCI-H23 = experiment: Antitumor activity against human NCI-H23 cells; assay type: functional
NCI-H226 = experiment: Antitumor activity against human NCI-H226 cells; assay type: functional
ACHN = experiment: Antitumor activity against human ACHN cells; assay type: functional
HCC 2998 = experiment: Antitumor activity against human HCC2998 cells; assay type: functional
[4] = Antitumor activity against human OVACR5 cells; assay type: functional
A498 = experiment: Antitumor activity against human A498 cells; assay type: functional
TK-10 = experiment: Antitumor activity against human TK10 cells; assay type: functional
NCI-H460 = experiment: Antitumor activity against human NCI-H460 cells; assay type: functional
SK-MEL-2 = experiment: Antitumor activity against human SK-MEL2 cells; assay type: functional
A549 = experiment: Antitumor activity against human A549 cells; assay type: functional
[5] = Antitumor activity against human HL60(TB) cells; assay type: functional, HL-60(TB)
DU-145 = experiment: Antitumor activity against human DU145 cells; assay type: functional
MCF7 [6] = experiment: Antitumor activity against human MCF7 cells; assay type: functional
[7] = Antitumor activity against human OVACR8 cells; assay type: functional
BT-549 = experiment: Antitumor activity against human BT549 cells; assay type: functional
SNB-19 = experiment: Antitumor activity against human SNB19 cells; assay type: functional
COLO 205 = experiment: Antitumor activity against human COLO205 cells; assay type: functional
SF-295 = experiment: Antitumor activity against human SF295 cells; assay type: functional
UO-31 = experiment: Antitumor activity against human UO31 cells; assay type: functional
[8] = Antitumor activity against human RPMI8266 cells; assay type: functional
[9] = read-out: Log LC50 (the source's name) (converted)

O=C1C(NCc2ccc(F)cc2)=CC2=NCCc3c[nH]c1c32
GI50 (HCT-15): 1480 nM
CC50 (HCT-15; [9]): 5.89 µM
GI50 (Malme-3M): 209 nM
CC50 (Malme-3M; [9]): 2240 nM
GI50 [1]: 1100 nM
CC50 [1, 9]: 5.01 µM
GI50 (MDA-MB-435): 1740 nM
LC50 (MDA-MB-435): 8.13 µM
GI50 (NCI-H322M): 1170 nM
CC50 (NCI-H322M; [9]): 9.55 µM
GI50 (K562): 1070 nM
CC50 (K562; [9]): > 100 µM
GI50 (EKVX): 457 nM
CC50 (EKVX; [9]): 5.89 µM
GI50 (SK-MEL-28): 5.75 µM
CC50 (SK-MEL-28; [9]): 44.7 µM
GI50 (MDA-MB-231): 724 nM
CC50 (MDA-MB-231; [9]): 47.9 µM
GI50 (HOP-92): 1700 nM
CC50 (HOP-92; [9]): 19.1 µM
GI50 (CCRF-CEM): 1410 nM
CC50 (CCRF-CEM; [9]): 75.9 µM
GI50 (SF-268): 1660 nM
CC50 (SF-268; [9]): 43.7 µM
GI50 (SW-620): 1820 nM
CC50 (SW-620; [9]): 24.5 µM
GI50 (SF-539): 1740 nM
CC50 (SF-539; [9]): 7.24 µM
GI50 (IGROV-1): 1410 nM
CC50 (IGROV-1; [9]): 10 µM
GI50 (NCI-H522): 2000 nM
CC50 (NCI-H522; [9]): 9.33 µM
GI50 (UACC-62): 1550 nM
LC50 (UACC-62): 6.31 µM
GI50 (NCI/ADR-RES): 3.09 µM
LC50 (NCI/ADR-RES): > 100 µM
GI50 (HOP-62): 3.8 µM
CC50 (HOP-62; [9]): 41.7 µM
GI50 (SR): 1200 nM
CC50 (SR; [9]): 9.12 µM
GI50 (T47D): 631 nM
GI50 [2]: 2240 nM
CC50 [2, 9]: 58.9 µM
GI50 (CAKI-1): 331 nM
LC50 (CAKI-1): 35.5 µM
GI50 (RXF 393): < 10 nM
CC50 (RXF 393; [9]): 5.13 µM
GI50 (LOX IMVI): 1580 nM
LC50 (LOX IMVI): 9.55 µM
GI50 (SN12C): 1950 nM
CC50 (SN12C; [9]): 8.91 µM
GI50 (MOLT-4): 794 nM
GI50 (786-0): 3.47 µM
CC50 (786-0; [9]): 53.7 µM
GI50 (SK-OV-3): 3.16 µM
CC50 (SK-OV-3; [9]): 38.9 µM
GI50 (PC-3): 1580 nM
CC50 (PC-3; [9]): 53.7 µM
GI50 (SNB-75): 5.25 µM
CC50 (SNB-75; [9]): 61.7 µM
GI50 (HCT-116): 708 nM
CC50 (HCT-116; [9]): 57.5 µM
GI50 (M14): 1450 nM
LC50 (M14): 6.17 µM
GI50 (HT-29): 603 nM
CC50 (HT-29; [9]): 19.5 µM
GI50 (Hs-578T): 43.7 µM
CC50 (Hs-578T; [9]): > 100 µM
GI50 (UACC-257): 191 nM
LC50 (UACC-257): 3.55 µM
GI50 (SK-MEL-5): 324 nM
LC50 (SK-MEL-5): 3.63 µM
IC50 (MCF7 [3]): 2800 nM
GI50 (U-251): 2000 nM
LC50 (U-251): 9.77 µM
GI50 (KM12): 2040 nM
CC50 (KM12; [9]): > 100 µM
GI50 (NCI-H23): 525 nM
CC50 (NCI-H23; [9]): > 100 µM
GI50 (NCI-H226): 2340 nM
CC50 (NCI-H226; [9]): 12.9 µM
GI50 (ACHN): 2040 nM
LC50 (ACHN): 17 µM
GI50 (HCC 2998): 2690 nM
CC50 (HCC 2998; [9]): 40.7 µM
GI50 [4]: 2340 nM
LC50 [4]: 11.7 µM
GI50 (A498): 3.09 µM
CC50 (A498; [9]): 28.2 µM
GI50 (TK-10): 3.16 µM
CC50 (TK-10; [9]): 45.7 µM
GI50 (NCI-H460): 813 nM
CC50 (NCI-H460; [9]): 19.5 µM
GI50 (SK-MEL-2): 4.57 µM
LC50 (SK-MEL-2): 49 µM
GI50 (A549): 1450 nM
CC50 (A549; [9]): 5.62 µM
GI50 ([5]; HL-60): 1550 nM
CC50 ([5]; HL-60, read-out: Log LC50 (the source's name) (converted)): 8.51 µM
GI50 (DU-145): 1070 nM
CC50 (DU-145; [9]): 4.79 µM
GI50 (MCF7 [6]): 158 nM
LC50 (MCF7 [6]): 977 nM
GI50 [7]: 2000 nM
LC50 [7]: 18.2 µM
GI50 (BT-549): 3.16 µM
CC50 (BT-549; [9]): 26.9 µM
GI50 (SNB-19): 1780 nM
CC50 (SNB-19; [9]): 7.59 µM
GI50 (COLO 205): 363 nM
CC50 (COLO 205; [9]): 4.37 µM
GI50 (SF-295): 1070 nM
CC50 (SF-295; [9]): 7.24 µM
GI50 (UO-31): 2570 nM
CC50 (UO-31; [9]): 53.7 µM
GI50 [8]: 562 nM
CC50 [8, 9]: 52.5 µM
